One may read the inhibition as the change of the read-out against control, counted positive when it falls.

Data set [1] is described as follows: Determination of cytotoxicity in THLE-2 cells (ATP viability). In kind it is cell-based. Conditions: human; THLE-2 cells, 72 h exposure, 0-100 μM; read-out: LC50 (μM), cytotoxicity. The method, then: Cytotoxic effects of assayed compounds were tested using the immortalized human liver cell line THLE-2 (ATCC CRL-2706). Cells were cultured in BEGM medium (Clonetics # CC-4175) containing all the supplements kit except additional EGF and G418. Medium was completed by adding 0.7 μg/mL phosphoethanolamine, 0.5 ng/mL epidermal growth factor, antibiotics (penicillin and streptomycin) and 10% fetal bovine serum (FBS).
Cells were plated in 96-well black microplates at 10,000 cells/well density and were incubated at 37° C. (5% CO2, 95% humidity) for 24 h to allow the cells to adhere and form a monolayer. Test compounds were solubilized in 100% DMSO at a concentration curve way and then diluted with cell culture medium containing 10% DMSO. The final concentrations of the test compounds (1% DMSO) ranged from 0-100 μM in a final volume of 200 μL. Microplates were maintained at 37° C. (5% CO2, 95% humidity) during 3 days. Following this 72 h exposure to test compounds, cell viability in each well was determined by measuring the concentration of cellular adenosine triphosphate (ATP) using the ATP1Step Kit as described by the manufacturer (Perkin-Elmer). In a typical procedure, 50 μL of cell reagent is added to all wells of each test plate followed by incubation for 10 min at room temperature on an orbital shaker. ATP concentration was determined by reading chemical luminescence using the Envision plate reader (PerkinElmer). The percentage of viable cells relative to the non-drug treated controls was determined for each well and LC50 values were calculated as concentrations projected to kill 50% of the cells following a 72 h exposure, an average of minimum two independent replicates.

The target of the next data set is T1, CYP1A2 (Homo sapiens, UniProt P05177).
T1 sequence (P05177 1-516): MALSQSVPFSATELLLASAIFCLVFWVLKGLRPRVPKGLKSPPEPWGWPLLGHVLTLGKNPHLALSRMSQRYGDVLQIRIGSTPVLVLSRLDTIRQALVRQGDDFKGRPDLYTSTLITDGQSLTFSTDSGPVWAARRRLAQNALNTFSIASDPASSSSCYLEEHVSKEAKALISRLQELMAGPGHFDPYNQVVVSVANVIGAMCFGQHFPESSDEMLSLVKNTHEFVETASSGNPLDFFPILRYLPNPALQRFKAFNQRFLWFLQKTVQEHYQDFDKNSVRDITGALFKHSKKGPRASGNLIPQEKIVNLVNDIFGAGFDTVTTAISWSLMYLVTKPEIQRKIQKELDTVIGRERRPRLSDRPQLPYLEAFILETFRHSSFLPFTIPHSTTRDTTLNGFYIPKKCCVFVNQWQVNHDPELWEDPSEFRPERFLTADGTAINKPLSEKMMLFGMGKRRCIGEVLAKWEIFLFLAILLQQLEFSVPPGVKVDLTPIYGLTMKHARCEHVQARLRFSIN
In words: Inhibition of human cytochrome P450 CYP1A2. The conditions noted are these: human cytochrome P450 enzyme. In kind it is in vitro ADME. The source says: The epoxidation of arachidonic acid (AA) by selected cytochrome P450 epoxygenases generates epoxyeicosatrienoic acids (EETs). These EETs show anti-inflammatory, antihypertensive, analgesic, angiogenic, and antiatherosclerotic effects in rodents and humans. sEH converts EETs to their corresponding dihydroxyeicosatrienoic acids (DHETs), whereby the biological effects of EETs are diminished, eliminated, or altered. Among the P450 enzymes, it is known that CYP2C19 and CYP1A2 have the highest formation rate of EETs from AA (cf. A. A. El-Sherbeni et al. “Repurposing resveratrol and fluconazole to modulate human cytrochrome P450-mediated arachidonic acid metabolites”, Molecular Pharmaceutics 2016, vol. 13, pp. 1278-1288). For this reason, a highly desirable aspect of any new sEH inhibitor is selectivity in front of CYP2C19 and CYP1A2.

The next data set addresses T2, sEH in AR42j cells (Rattus norvegicus, UniProt P80299).
T2 sequence (P80299 1-554): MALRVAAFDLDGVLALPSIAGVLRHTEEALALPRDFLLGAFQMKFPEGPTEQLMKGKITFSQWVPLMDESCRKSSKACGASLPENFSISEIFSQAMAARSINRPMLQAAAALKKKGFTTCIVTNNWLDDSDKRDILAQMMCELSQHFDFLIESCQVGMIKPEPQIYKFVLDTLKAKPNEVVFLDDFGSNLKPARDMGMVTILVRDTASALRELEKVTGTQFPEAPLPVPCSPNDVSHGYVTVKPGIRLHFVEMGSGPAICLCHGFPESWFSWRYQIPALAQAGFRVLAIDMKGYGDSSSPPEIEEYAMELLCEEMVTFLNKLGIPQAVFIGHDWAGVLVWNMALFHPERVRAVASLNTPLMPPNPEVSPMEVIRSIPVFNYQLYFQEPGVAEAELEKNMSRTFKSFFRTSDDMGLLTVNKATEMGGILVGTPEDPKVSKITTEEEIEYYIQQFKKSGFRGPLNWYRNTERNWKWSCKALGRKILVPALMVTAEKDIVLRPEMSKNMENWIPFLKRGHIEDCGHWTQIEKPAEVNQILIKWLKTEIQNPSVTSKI
In words: In vitro determination of sEH inhibition activity in AR42j cells (cell-based fluorescent assay). The conditions noted are these: AR-42J, read-out: % Inhn. ± SE (100 μM), sEH inhibition activity in cell culture.

Protocol for sEH in AR42j cells: Solutions Preparation: • Assay buffer 1×: add 10 mL of the CBA-Buffer (10×) to 90 mL of distilled water. • Lysis Buffer: add 50 μL of the CBA Digitonin Solution to 10 mL of Buffer Assay 1×. • Substrate Solution: dilute 10 μL of CBA sEH Substrate with 10 mL of Assay Buffer 1×. • Standards: preparation of 7 concentrations of CBA 6-methoxy-2-naphtalaldehyde from 0 until 2 M with Assay Buffer 1×. • sEH Positive Control: Prepare another stock A (1 μg/ml: 1 μL CBA sEH Positive Control+1 mL Assay Buffer 1×). From the already prepared stock A, prepare 250 μL of sEH (10 ng/mL): 2.5 μL sEH stock A+250 μL Assay Buffer 1×). • sEH Inhibitor AUDA: dilute 10 μL CBA sEH Inhibitor with 500 ml Assay Buffer 1×. • Inhibitors dissolved in DMSO at appropriated concentrations.
Seed cells in a 96-well plate at a density of (2×10^4)-(5×10^4) cells/well in 100 μL of culture medium with or without compounds to be tested. Incubation of the cells in a CO2 incubator at 37° C. for 48 hours. Aspirate the culture medium and add 200 μL of Assay Buffer 1× to each well. Centrifuge the plate at 800 rmp for 5 minutes. Aspirate the supernatant and add 100 μL of Lysis Buffer to each well. Incubate with gentle shaking on an orbital shaker for 30 minutes at room temperature. Centrifuge the plate at 3000 rpm for 20 minutes at 4° C. Transfer 90 μL of the supernatants to the 96-Well Solid Plate (black). Add 10 μL Assay Buffer 1× or 10 μL of the AUDA solution to appropriate wells. For positive control wells, add 100 μL of the 10 ng/mL sEH Positive Control to two wells. Add 200 μL of 6-methoxy-2-Naphthaldehyde Standards to corresponding wells of the black plate. Add 100 μL of the sEH Substrate Solution to each well, except the standards. Incubate the plate at 37° C. for 30 minutes. […] The intensity of fluorescence was used to analyze and calculate inhibition percentages, shown in the Table as average of minimum three independent replicates.

For `O=C(N[C@]12CC3C[C@@H](C[C@H](C3)O1)C2)N[C@H]1CC[C@H](Oc2ccc(C(=O)O)cc2)CC1` [Ig, trans-1-(2-oxaadamantan-1-yl)-3-[4-(4-carboxyphenoxy)cyclohexyl]urea], the CC50 at 72 h in data set [1] was above 100 µM. The molecule further gave an inhibition at 1 µM against CYP1A2 of at most 6%. The inhibition at 100 µM at sEH in AR42j cells came to 58.3 ± 3.2%.

For the origin of these results see US20200079786A1, “ANALOGS OF […] AS SOLUBLE EPOXIDE HYDROLASE INHIBITORS” (UNIVERSITAT DE BARCELONA, priority 2015, published 2020).
